Patent publication US20120214847A1, “2-[1-PHENYL-5-HYDROXY-4a-SUBSTITUTED-HEXAHYDROCYCLOPENTA[F]INDAZOL-5-YL]ETHYL PHENYL DERIVATIVES AS GLUCOCORTICOID RECEPTOR LIGANDS” (Merck Sharp & Dohme Corp., priority 2009, published 2012)
pEC50: −log10 of the molar value.

Target: T1, human GR (Homo sapiens, UniProt P04150)
T1 construct: naturally expresses the human GR; endogenous in cells
T1 sequence (P04150 1-777): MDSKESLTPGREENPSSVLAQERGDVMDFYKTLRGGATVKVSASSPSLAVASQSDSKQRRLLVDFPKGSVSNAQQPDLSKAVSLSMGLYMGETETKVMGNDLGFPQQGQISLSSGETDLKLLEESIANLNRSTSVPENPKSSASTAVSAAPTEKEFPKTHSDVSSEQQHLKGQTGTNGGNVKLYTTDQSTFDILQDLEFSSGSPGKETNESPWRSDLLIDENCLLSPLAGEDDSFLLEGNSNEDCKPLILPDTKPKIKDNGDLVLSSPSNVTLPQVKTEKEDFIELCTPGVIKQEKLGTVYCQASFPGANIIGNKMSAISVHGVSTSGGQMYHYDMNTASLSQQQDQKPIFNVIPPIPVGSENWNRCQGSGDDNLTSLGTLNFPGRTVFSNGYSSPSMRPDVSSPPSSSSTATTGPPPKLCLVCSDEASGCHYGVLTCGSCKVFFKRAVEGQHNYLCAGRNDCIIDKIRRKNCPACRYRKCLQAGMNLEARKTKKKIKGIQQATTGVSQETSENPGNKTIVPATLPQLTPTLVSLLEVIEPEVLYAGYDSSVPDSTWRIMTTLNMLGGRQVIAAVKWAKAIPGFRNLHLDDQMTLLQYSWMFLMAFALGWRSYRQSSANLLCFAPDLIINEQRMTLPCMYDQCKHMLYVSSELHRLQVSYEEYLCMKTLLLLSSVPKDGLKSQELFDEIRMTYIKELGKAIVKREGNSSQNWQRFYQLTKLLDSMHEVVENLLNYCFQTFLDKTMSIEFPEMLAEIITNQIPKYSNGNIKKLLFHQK
Test: Trans-activation modulation of glucocorticoid receptor (GRAMMER), MMTV-LUC reporter in A549 cells
Assay type: cell-based
Details: for Emax: A549, A549 cells, read-out: Transactivation A549 Cells Grammer Emax (%); for Emax / Transactivation A549 Cells Grammer Emax (%): Emax relative to the activity obtained with 300 nM dexamethasone; for pEC50 / Transactivation A549 Cells Grammer Emax (%): A549 cells; for pEC50: IP = inflection point, read-out: Transactivation A549 Cells Grammer IP
Source text: Trans-Activation Modulation of Glucocorticoid Receptor (GRAMMER)
This assay assesses the ability of test compounds to control transcription from the MMTV-LUC reporter gene in lung adenocarcinoma A549 cells or HeLa cells, a human […] cell line that naturally expresses the human GR. The assay measures induction of a modified MMTV LTR/promoter linked to the LUC reporter gene.
The routine transient assay consists of plating 7,000-25,000 cells/well of a white, clear-bottom 96-well plate. Alternatively, 384-well plates can be used at a cell concentration of 10,000/well. The media that the cells are plated in is “exponential growth medium” which consists of phenol red-free RPMI1640 containing 10% FBS, 4 mM L-glutamine, 20 mM HEPES, 10 ug/mL human insulin, and 20 ug/mL gentamicin. Incubator conditions are 37° C. and 5% C02. The transfection is done in batch mode. The cells are trypsinized and counted to the right cell number in the proper amount of fresh media. It is then gently mixed with the FuGene6/DNA 25 mix and plated onto the 96 or 384-well plate, all the wells receive 100 uL or 40 uL, respectively, of medium+lipid/DNA complex then incubated 37° C. overnight. The transfection cocktail consists of serum-free OptiMEM, FuGene6 reagent and DNA. The manufacturer's (Roche Biochemical) protocol for cocktail setup is as follows: The lipid to DNA ratio is approximately 2.5:1 and the incubation time is 20 min at room temperature. Sixteen to 24 h after transfection, the cells are treated with dexamethasone to a final concentration of 10 nM as well as the compound of interest, such that final DMSO (vehicle) concentration is equal to or less than 1%. Each plate also contains samples that are treated with 10 nM dexamethasone alone, which is used as the 100% activity control. The cells are exposed to the compounds for 24 h. After 24 h, the cells are lysed by a Promega cell culture lysis buffer for approximately 30 min and then the luciferase activity in the extracts is assayed in the 96-well format luminometer. In 384 well format, Steady-Glo (Promega) or Steady-Lite (PerkinElmer) can be used by adding an equal volume of reagent to the media present in each well. Activity induced by 10 nM dexamethasone alone is set at 100% activity. Antagonist activity is calculated by determining the decrease in dexamethasone-induced activity in response to compound treatment relative to samples that were treated with dexamethasone alone. Results are expressed as % inhibition of 10 nM dexamethasone activity or as fold of 10 nM dexamethasone activity. This transactivation assay can be performed in an agonist and antagonist mode to identify these different activities.
Activity of test compounds is calculated as the Emax relative to the activity obtained with 300 nM dexamethasone. […] The exemplified tissue selective glucocorticoid receptor modulators of the present invention display agonist activity in this assay of greater than 5% and less than 100%, and maximal transactivation activity less then maximal transrepression activity. The action of compounds is also tested in an antagonist mode (Anti-GRAMMER) in which the cells are treated with medium containing an agonist such as 10 nM DEX and the ability of agents to inhibit the activation by an agonist is measured.

Structure (SMILES) | Emax [%] | pEC50 | Transactivation A549 Cells Grammer Emax (%)
O=S(=O)(c1ccccc1CC[C@]1(O)CCC2=Cc3c(cnn3-c3ccc(F)cc3)C[C@@]21C1CC1)C1CC1 [Example 63, (4aR,5R)-4a-Cyclopropyl-5-{2-[2-(cyclopropylsulfonyl)phenyl]ethyl}-1-(4-fluorophenyl)-1,4,4a,5,6,7-hexahydrocyclopenta[f]indazol-5-ol] | 5 | 7.38 | –
CC[C@]12Cc3cnn(-c4ccc(F)cc4)c3C=C1CC[C@@]2(O)CC1OC(=O)c2ccccc21 (stereo partly drawn) [Example 71, 3-{[(4aS,5R)-4a-Ethyl-1-(4-fluorophenyl)-5-hydroxy-1,4,4a,5,6,7-hexahydrocyclopenta[f]indazol-5-yl]methyl}-2-benzofuran-1(3H)-one] | 30 | 7.11 | –
CC[C@]12Cc3cnn(-c4ccccc4)c3C=C1CC[C@@]2(O)CC(O)c1ccccn1 (single isomer, unassigned) [Example 67a] | 20 | 6.55 | –
CC[C@]12Cc3cnn(-c4ccccc4)c3C=C1CC[C@@]2(O)CCc1ccc(F)cc1C(N)=O [Example 6] | 26 | 6.75 | –
CC[C@]12Cc3cnn(-c4ccc(F)cc4)c3C=C1CC[C@@]2(O)CC(O)c1ncccc1F (stereo partly drawn) [Example 77, (4aS,5R)-4a-Ethyl-1-(4-fluorophenyl)-5-[2-(3-fluoropyridin-2-yl)-2-hydroxyethyl]-1,4,4a,5,6,7-hexahydrocyclopenta[f]indazol-5-ol] | – | 6.94 | 23
CC[C@]12Cc3cnn(-c4ccc(F)cc4)c3C=C1CC[C@@]2(O)CCc1ccccc1C(O)C(N)=O (stereo partly drawn) [Example 25, 2-(2-{2-[(4aS,5R)-4a-Ethyl-1-(4-fluorophenyl)-5-hydroxy-1,4,4a,5,6,7-hexahydrocyclopenta[f]indazol-5-yl]ethyl}phenyl)-2-hydroxyacetamide] | – | 6.71 | 22
NC(=O)c1cc(F)ccc1CC[C@]1(O)CCC2=Cc3c(cnn3-c3ccc(F)cc3)C[C@@]21C1CC1 [Example 39, 2-{2-[(4aR,5R)-4a-Cyclopropyl-1-(4-fluorophenyl)-5-hydroxy-1,4,4a,5,6,7-hexahydrocyclopenta[f]indazol-5-yl]ethyl}-5-fluorobenzamide] | 14 | 6.94 | –
NC(=O)CNC(=O)c1ccccc1CC[C@]1(O)CCC2=Cc3c(cnn3-c3ccc(F)cc3)C[C@@]21C1CC1 [Example 47, N-(2-Amino-2-oxoethyl)-2-{2-[(4aR,5R)-4a-cyclopropyl-1-(4-fluorophenyl)-5-hydroxy-1,4,4a,5,6,7-hexahydrocyclopenta[f]indazol-5-yl]ethyl}benzamide] | 46 | 7.77 | –
CC[C@]12Cc3cnn(-c4cccnc4)c3C=C1CC[C@@]2(O)CCc1ccccc1C(N)=O [Example 13, 2-{2-[(4aS,5R)-4a-Ethyl-5-hydroxy-1-(pyridin-3-yl)-1,4,4a,5,6,7-hexahydrocyclopenta[f]indazol-5-yl]ethyl}benzamide] | 34 | 6.65 | –
NC(=O)c1cccnc1CC[C@]1(O)CCC2=Cc3c(cnn3-c3ccc(F)cc3)C[C@@]21C1CC1 [Example 1, 2-{2-[(4aR,5R)-4a-Cyclopropyl-1-(4-fluorophenyl)-5-hydroxy-1,4,4a,5,6,7-hexahydrocyclopenta[f]indazol-5-yl]ethyl}pyridine-3-carboxamide] | 27 | 7.21 | –
NC(=O)Cc1c(F)cccc1CC[C@]1(O)CCC2=Cc3c(cnn3-c3ccc(F)cc3)C[C@@]21C1CC1 [Example 61, 2-(2-{2-[(4aR,5R)-4a-Cyclopropyl-1-(4-fluorophenyl)-5-hydroxy-1,4,4a,5,6,7-hexahydrocyclopenta[f]indazol-5-yl]ethyl}-6-fluorophenyl)acetamide] | 13 | 7.68 | –
CC(C)(CO)NC(=O)c1ccccc1CC[C@]1(O)CCC2=Cc3c(cnn3-c3ccc(F)cc3)C[C@@]21C1CC1 [Example 45, 2-{2-[(4aR,5R)-4a-Cyclopropyl-1-(4-fluorophenyl)-5-hydroxy-1,4,4a,5,6,7-hexahydrocyclopenta[f]indazol-5-yl]ethyl}-N-(1-hydroxy-2-methylpropan-2-yl)benzamide] | 39 | 7.66 | –
N#Cc1ccccc1CC[C@]1(O)CCC2=Cc3c(cnn3-c3cccnc3)C[C@@]21C1CC1 [Example 30, 2-{2-[(4aR,5R)-4a-Cyclopropyl-5-hydroxy-1-(pyridin-3-yl)-1,4,4a,5,6,7-hexahydrocyclopenta[f]indazol-5-yl]ethyl}benzonitrile] | 4 | 6.90 | –
COc1ccnc(CC[C@]2(O)CCC3=Cc4c(cnn4-c4ccc(F)cc4)C[C@@]32C2CC2)c1C(N)=O [Example 54, 2-{2-[(4aR,5R)-4a-Cyclopropyl-1-(4-fluorophenyl)-5-hydroxy-1,4,4a,5,6,7-hexahydrocyclopenta[f]indazol-5-yl]ethyl}-4-methoxypyridine-3-carboxamide] | 23 | 7.46 | –
NS(=O)(=O)c1ccccc1CC[C@]1(O)CCC2=Cc3c(cnn3-c3cccnc3)C[C@@]21C1CC1 [Example 24, 2-{2-[(4aR,5R)-4a-Cyclopropyl-5-hydroxy-1-(pyridin-3-yl)-1,4,4a,5,6,7-hexahydrocyclopenta[f]indazol-5-yl]ethyl}benzenesulfonamide] | 35 | 7.62 | –
CC[C@]12Cc3cnn(-c4ccc(F)cc4)c3C=C1CC[C@@]2(O)CC(O)c1ccc(F)cn1 (single isomer, unassigned) [Example 69a] | 33 | 6.77 | –
CC[C@]12Cc3cnn(-c4ccccc4)c3C=C1CC[C@@]2(O)CC(O)c1cc(C#N)ccn1 (stereo partly drawn) [Example 75, 2-{2-[(4aS,5R)-4a-Ethyl-5-hydroxy-1-phenyl-1,4,4a,5,6,7-hexahydrocyclopenta[f]indazol-5-yl]-1-hydroxyethyl}pyridine-4-carbonitrile] | 10 | 6.97 | –
N#Cc1c(F)cccc1CC[C@]1(O)CCC2=Cc3c(cnn3-c3ccccc3)C[C@@]21C1CC1 [Example 28, 2-{2-[(4aR,5R)-4a-Cyclopropyl-5-hydroxy-1-phenyl-1,4,4a,5,6,7-hexahydrocyclopenta[f]indazol-5-yl]ethyl}-6-fluorobenzonitrile] | 8 | 7.49 | –
CC[C@]12Cc3cnn(-c4ccc(F)cc4)c3C=C1CC[C@@]2(O)CCc1cc(C(F)(F)F)ccn1 [Example 34, (4aS,5R)-4a-Ethyl-1-(4-fluorophenyl)-5-{2-[4-(trifluoromethyl)pyridin-2-yl]ethyl}-1,4,4a,5,6,7-hexahydrocyclopenta[f]indazol-5-ol] | 24 | 7.04 | –
